Measured values from PubChem BioAssay AID1919013 (Molecular Pharmacology Branch, DTP, NCI, 2023).
“And” between values parts separate entries of the source, which are not always exact repeats. Equal values may be shown once. Each block holds one molecule with its values, some of them ahead of it.

System: LG0703-F498-PDC complex spheroid growth
Assay: Anticancer human tumor LG0703-F498-PDC patient-derived lung adenocarcinoma cell line growth inhibition [AhR]
Conditions: for viability, T/C: stronger effect = lower value
From the text: Multicellular complex tumor spheroid response to aryl hydrocarbon receptor antagonists in combination with a variety of drugs and investigational agents in selected tumor cell lines
The current study was undertaken to assess response to aryl hydrocarbon receptor antagonists in combination with standard-of-care drugs and investigational agents in solid tumor complex spheroid models. Complex spheroids include a stromal component modeled by human endothelial cells (HUVEC) and fibroblasts modeled by human mesenchymal stem cells (MSCs). The concentration ranges selected for each drug and investigational agent were based upon clinically achievable concentrations if the clinical Cmax of the agent was known.
Compounds. The drugs and investigational agents: BAY 2416964 (NSC825713), GNF351 (NSC835774), CH-223191 (NSC835775), CPI-455 (NSC825282), aza-TdCyd (NSC777586), decitabine (NSC127716), belinostat (NSC758774), entinostat (NSC756642), pevonedistat (NSC761192), tazemetostat (NSC777109), talazoparib (NSC765396), olaparib (NSC753686), selinexor (NSC780203), nedisertib (M3814, NSC802822), bortezomib (NSC756655), venetoclax (NSC766270), doxorubicin (NSC123127), elimusertib (BAY189344, NSC800525), ceralasertib (AZD6738, NSC777638), TAK-243 (NSC785004), alisertib (NSC759677), etoposide (NSC141540), topotecan (NSC609699), eribulin (NSC707389), gemcitabine (NSC613327), carboplatin (NSC241240), cisplatin (NSC119875), and SN-38 (NSC673596) were obtained from the National Cancer Institute (NCI) Developmental Therapeutics Program Chemical Repository (32). The FDA-approved anticancer drug set is available from the Developmental Therapeutics Program at https://dtp.cancer.gov/organization/dscb/obtaining/available plates.htm. […] The stock solutions were prepared in dimethyl sulfoxide (DMSO, Sigma-Aldrich, St. Louis, MO, cat. D2650), except for the platinum compounds which were prepared in saline (Quality Biological, Gaithersburg, MD, cat. 114-055-101), at 800-fold the tested concentration and stored at -70 degrees C prior to their use. All drugs and investigational agents were tested over a range starting from a high concentration at or near the clinical Cmax and decreasing in half-log increments. If the clinical Cmax for an agent had not been determined, the highest concentration tested was 10 microM (Table 1).
Cell Culture. All cells were maintained in an incubator at 37 degrees C and 5% CO2 with 95% humidity. The PDC lines were cultured according to standard operating procedures established by the NCI PDMR (https://pdmr.cancer.gov). Briefly, all PDCs were thawed and cultured in Matrigel-coated flasks prepared with a working solution of 1X Ham's F-12 nutrient mix, without supplementation (Invitrogen, Waltham, MA, cat. 11765054), 100 U/mL penicillin-streptomycin (Invitrogen, cat. 15140122), and 2.5% Matrigel (Corning Inc., Corning, NY, cat. 354248) for the first three passages. All PDCs were cultured in complete DMEM/F-12 media containing advanced DMEM/F-12 (Invitrogen, cat. 12634028), 4.9% defined fetal bovine serum, heat inactivated (HyClone Laboratories Inc., Logan, UT, cat. SH30070.03HI), 389 ng/mL hydrocortisone (Sigma-Aldrich, cat. H4001), 9.7 ng/mL human EGF recombinant protein (Invitrogen, cat. PHG0313), 23.4 microg/mL adenine (Sigma-Aldrich, cat. A2786), 97.3 U/mL penicillin-streptomycin (Invitrogen, cat. 15140122), 1.9 mM L-glutamine (Invitrogen, cat. 25030081), and 9.7 microM Y-27632 dihydrochloride (Tocris Bioscience, Bristol, United Kingdom, cat. 1254). The PDCs were cultured in complete DMEM/F12 media without 10 microM Y-27632 dihydrochloride for at least two passages prior to the screen. The established cell lines NCI-H1341 and […] were cultured in DMEM/F-12, HEPES (Invitrogen, cat. 11330032), 5% defined fetal bovine serum (HyClone Laboratories Inc., cat. SH30070.03), ITS premix universal culture supplement [insulin (5 microg/mL), transferrin (5 microg/mL), and selenious acid (5 ng/mL)] […]
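Note: luminescence taken as a proxy for viable cell amount.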
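Throughout, for viability, T/C: percent of DMSO vehicle control where 100% means growth equal to vehicle.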

- IC50 (curve of first compound, second compound 0.1 µM): > 100 nM
- IC50 (curve of first compound, second compound 0.316 µM): > 100 nM
- IC50 (curve of first compound, second compound 1 µM): > 100 nM
- IC50 (curve of first compound, second compound 3.16 µM): > 100 nM
- IC50 (curve of first compound, second compound 10 µM): > 100 nM
SMILES: CC[C@@]1(O)C(=O)OCc2c1cc1n(c2=O)Cc2cc3c(CN(C)C)c(O)ccc3nc2-1 + Cc1ccccc1N=Nc1ccc(NC(=O)c2ccnn2C)c(C)c1
- viability, T/C (second compound 0.1 µM, first compound 0.000316 µM): 94.9%
- viability, T/C (second compound 0.1 µM, first compound 0.001 µM): 116%
- viability, T/C (second compound 0.1 µM, first compound 0.00316 µM): 92.2%
- viability, T/C (second compound 0.1 µM, first compound 0.01 µM): 96.2%
- viability, T/C (second compound 0.1 µM, first compound 0.0316 µM): 88.5%
- viability, T/C (second compound 0.1 µM, first compound 0.1 µM): 60.3%
- viability, T/C (second compound 0.316 µM, first compound 0.000316 µM): 97.8%
- viability, T/C (second compound 0.316 µM, first compound 0.001 µM): 93.6%
- viability, T/C (second compound 0.316 µM, first compound 0.00316 µM): 78.5%
- viability, T/C (second compound 0.316 µM, first compound 0.01 µM): 93.6%
- viability, T/C (second compound 0.316 µM, first compound 0.0316 µM): 77.2%
- viability, T/C (second compound 0.316 µM, first compound 0.1 µM): 66.6%
- viability, T/C (second compound 1 µM, first compound 0.000316 µM): 93.9%
- viability, T/C (second compound 1 µM, first compound 0.001 µM): 82.2%
- viability, T/C (second compound 1 µM, first compound 0.00316 µM): 83.5%
- viability, T/C (second compound 1 µM, first compound 0.01 µM): 82.2%
- viability, T/C (second compound 1 µM, first compound 0.0316 µM): 78.9%
- viability, T/C (second compound 1 µM, first compound 0.1 µM): 61.2%
- viability, T/C (second compound 3.16 µM, first compound 0.000316 µM): 84.4%
- viability, T/C (second compound 3.16 µM, first compound 0.001 µM): 83.9%
- viability, T/C (second compound 3.16 µM, first compound 0.00316 µM): 86.1%
- viability, T/C (second compound 3.16 µM, first compound 0.01 µM): 72.6%
- viability, T/C (second compound 3.16 µM, first compound 0.0316 µM): 61.1%
- viability, T/C (second compound 3.16 µM, first compound 0.1 µM): 51.1%
- viability, T/C (second compound 10 µM, first compound 0.000316 µM): 72.9%
- viability, T/C (second compound 10 µM, first compound 0.001 µM): 80.5%
- viability, T/C (second compound 10 µM, first compound 0.00316 µM): 78.7%
- viability, T/C (second compound 10 µM, first compound 0.01 µM): 63.9%
- viability, T/C (second compound 10 µM, first compound 0.0316 µM): 57.1%
- viability, T/C (second compound 10 µM, first compound 0.1 µM): 60.2%

- IC50 (curve of compound): 67.4 nM and 111 nM and 123 nM
SMILES: CCc1c2c(nc3ccc(O)cc13)-c1cc3c(c(=O)n1C2)COC(=O)[C@]3(O)CC
- viability, T/C (compound 0.000949 µM): 95.1% and 92.3% and 101%
- viability, T/C (compound 0.003 µM): 87% and 101% and 106%
- viability, T/C (compound 0.00949 µM): 95.9% and 86.3% and 92.1%
- viability, T/C (compound 0.03 µM): 62.3% and 66% and 69.1%
- viability, T/C (compound 0.0949 µM): 47.3% and 57% and 58.6%
- viability, T/C (compound 0.3 µM): 30.2% and 32.5% and 34.4%
